Reference: PMC8079033, “Design, synthesis, anticancer evaluation, and molecular modelling studies of novel tolmetin derivatives as potential VEGFR-2 inhibitors and apoptosis inducers” (Journal of Enzyme Inhibition and Medicinal Chemistry, 2021)

Columns and labels:
caspase-3 = experiment: Caspase-3 (active) ELISA in HCT-15 cells; assay type: cell-based, human
Method: The level of the apoptotic marker caspase-3 was assessed using Human Caspase-3 (active) ELISA Kit Catalog # KHO1091. The procedure of the used kit was done according to the manufacturer’s instructions. Allow all reagents to reach room temperature before use. Gently mix all liquid reagents prior to use. Add 100 µl of the standard diluent buffer to the zero standard wells. Add 100 µl of standards and controls or diluted samples to the appropriate microtiter wells. Incubate for 2 h at room temperature. […] Incubate for 1 h at room temperature. Add 100 µl anti-rabbit IgG HRP working solution to each well. Prepare the working dilution and incubate for 30 min at room temperature. Add 100 µl of stabilised chromogen to each well. The liquid in the wells will begin to turn blue. Incubate for 30 min at room temperature and in the dark. Add 100 µl of stop solution to each well. The solution in the wells should change from blue to yellow. Read the absorbance of each well at 450 nm. Read the plate within 2 h after adding the stop solution. Use a curve fitting software to generate the standard curve. Read the concentrations for unknown samples and controls from the standard curve.
(§1) The activation of caspases as caspase-3, caspase-8, and caspase-9 is responsible for apoptosis, particularly caspase-3 which is an effector caspase that has an important role in apoptosis. It is activated by one of the initiator caspases which results in the activation of certain enzymes responsible for the fragmentation of DNA[53]. Caspase-8 and -9 are initiator caspases that are responsible for caspase-3 activation.

colon (HCT-15) cell line = experiment: MTT cytotoxicity assay; assay type: cell-based; conditions: Homo sapiens, mean ± SD of three experiments
HUVECs = experiment: Wound healing assay (CytoSelect 24-well); assay type: cell-based, human; conditions: 72 h, 5b 2.4 µM, sunitinib 3.2 µM, control 97.03 ± 5.47
Method: Wound healing assay of compound 5b was evaluated using CytoSelect™ 24-Well Wound Healing Assay kit Catalog # CBA-120 according to manufacturer’s instructions. In brief, the 24-well plate wound healing inserts were allowed to warm up at room temperature for 10 minutes, then to each well, 500 µl of human umbilical vascular endothelial cells (HUVECs) suspension (1.0 × 10^6) in media containing 10% fetal bovine serum (FBS) was added. Cells were kept in a cell culture incubator until a monolayer form. Carefully the insert was removed from the well. The media were slowly aspirated and discarded from the wells. The wells were washed with media to remove dead cells and debris. Finally, the media were added to wells to keep cells hydrated, then wells were visualized under a light microscope. […] The percent closure of the cells into the wound field was measured.
One of the hallmarks of angiogenesis is cell migration, which happens in the earlier stages of the angiogenic cascade. A wound-healing assay was performed to investigate in vitro anti-angiogenic property of compound 5b.

caspase-9 = experiment: Caspase-9 ELISA in HCT-15 cells; assay type: cell-based, human
Method: (§2) To measure caspase-8 and caspase-9 levels, DRG® Caspase-8 (human) (EIA-4863) ELISA and DRG® Caspase-9 (human) (EIA-4860) ELISA kits were used. Briefly, prepare cell extracts after induction of apoptosis. Resuspend the extracts in lysis buffer, incubate 60 min at room temperature, and centrifuge for 15 min. Wash the microwell strips with 400 µl wash buffer. Add 100 µl of sample diluent in duplicate to all standard wells. Add 100 µl of sample diluent in duplicate to the blank wells. Add 50 µl of sample diluent to the sample wells. Add 50 µl of each sample in duplicate to the sample wells. Add 50 µl of detection antibody to all wells and incubate at room temperature for 2 h. Add 100 µl of diluted anti-rabbit-IgG-HRP to all wells, including the blank wells. Pipette 100 µl of (3,3′,5,5′-Tetramethylbenzidine) TMB substrate solution to all wells and incubate at room temperature for about 15 min. Stop the enzyme reaction by pipetting 100 µl of stop solution into each well. Read absorbance of each microwell on a spectro-photometer using 450 nm. Determine the absorbance of both the samples and the standards.
as §1

caspase-8 = experiment: Caspase-8 ELISA in HCT-15 cells; assay type: cell-based, human
Method: as §2, §1

renal (UO-31) cell line = experiment: MTT cytotoxicity assay; assay type: cell-based; conditions: Homo sapiens, mean ± SD of three experiments
[1] = tested on: leukaemia HL-60 (TB) cell line; experiment: MTT cytotoxicity assay; assay type: cell-based; conditions: Homo sapiens, mean ± SD of three experiments

## CCN(CC)CCNC(=O)c1c(C)[nH]c(/C=C2\C(=O)Nc3ccc(F)cc32)c1C [Sunitinib, reference compound]
caspase-3; mean ± SD of three experiments, control 0.073 ± 0.01
  Caspase-3: 0.641 ± 0.02 ng/mL
caspase-3; vs control
  increase in the level of caspase-3: 8.780 fold
Colon (HCT-15) cell line
  IC50: 9.06 ± 0.49 µM
HUVECs
  Wound closure percentage: 44.44 ± 2.51%
caspase-9; mean ± SD of three experiments, control 3.225 ± 0.44
  Caspase-9: 27.26 ± 0.82 ng/mL
caspase-9; vs control
  increase in the level of caspase-9: 8.453 fold
caspase-8; mean ± SD of three experiments, control 0.377 ± 0.03
  Caspase-8: 1.284 ± 0.11 ng/mL
caspase-8; vs control
  increase in the level of caspase-8: 3.406 fold
Renal (UO-31) cell line
  IC50: 18.1 ± 0.95 µM
[1]
  IC50: 2.77 ± 0.14 µM
